According to ChEMBL document CHEMBL1201862, “PubChem BioAssay data set” (2004):
The source made the active and inactive calls.

How the values were obtained:
[1] = molecular target: T1, SUMO-activating enzyme (Homo sapiens, UniProt Q9UBT2); test: blockers of UBC9-mediated SUMO conjugation – biochemical, AlphaScreen, SUMOylation inhibitor project, confirmation (AID 2018); type: functional
[2] = molecular target: T1, SUMO-activating enzyme; test: blockers of SAE1/SAE2–UBC9 SUMO transfer – biochemical, HTRF, uHTS, primary screen (AID 2006); type: protein-complex assay
[3] = system: BJ; test: BJ-TERT-LT-ST fibroblast viability loss – cell-based, RAS-independent, luminescence, dose response (AID 1935); type: functional; details: Homo sapiens;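 also: BJ fibroblasts immortalized with TERT plus LT and ST oncogenes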
[4] = DRD fibroblast viability loss – cell-based, non-viral oncogenic, luminescence, dose response (AID 1934); type: functional; details: Homo sapiens
[5] = system: BJ; test: BJ-TERT fibroblast viability loss – cell-based, RAS-independent, luminescence, dose response (AID 1933); type: functional; details: Homo sapiens
[6] = system: BJ; test: cells; type: functional, cell-based; details: Homo sapiens
[7] = molecular target: Voltage-dependent T-type calcium channel subunit alpha-1H (Homo sapiens, UniProt O95180); type: functional;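 also: channel activity triggered by adding a high calcium stimulation buffer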
Chain of Voltage-dependent T-type calcium channel subunit alpha-1H (O95180 whole entry): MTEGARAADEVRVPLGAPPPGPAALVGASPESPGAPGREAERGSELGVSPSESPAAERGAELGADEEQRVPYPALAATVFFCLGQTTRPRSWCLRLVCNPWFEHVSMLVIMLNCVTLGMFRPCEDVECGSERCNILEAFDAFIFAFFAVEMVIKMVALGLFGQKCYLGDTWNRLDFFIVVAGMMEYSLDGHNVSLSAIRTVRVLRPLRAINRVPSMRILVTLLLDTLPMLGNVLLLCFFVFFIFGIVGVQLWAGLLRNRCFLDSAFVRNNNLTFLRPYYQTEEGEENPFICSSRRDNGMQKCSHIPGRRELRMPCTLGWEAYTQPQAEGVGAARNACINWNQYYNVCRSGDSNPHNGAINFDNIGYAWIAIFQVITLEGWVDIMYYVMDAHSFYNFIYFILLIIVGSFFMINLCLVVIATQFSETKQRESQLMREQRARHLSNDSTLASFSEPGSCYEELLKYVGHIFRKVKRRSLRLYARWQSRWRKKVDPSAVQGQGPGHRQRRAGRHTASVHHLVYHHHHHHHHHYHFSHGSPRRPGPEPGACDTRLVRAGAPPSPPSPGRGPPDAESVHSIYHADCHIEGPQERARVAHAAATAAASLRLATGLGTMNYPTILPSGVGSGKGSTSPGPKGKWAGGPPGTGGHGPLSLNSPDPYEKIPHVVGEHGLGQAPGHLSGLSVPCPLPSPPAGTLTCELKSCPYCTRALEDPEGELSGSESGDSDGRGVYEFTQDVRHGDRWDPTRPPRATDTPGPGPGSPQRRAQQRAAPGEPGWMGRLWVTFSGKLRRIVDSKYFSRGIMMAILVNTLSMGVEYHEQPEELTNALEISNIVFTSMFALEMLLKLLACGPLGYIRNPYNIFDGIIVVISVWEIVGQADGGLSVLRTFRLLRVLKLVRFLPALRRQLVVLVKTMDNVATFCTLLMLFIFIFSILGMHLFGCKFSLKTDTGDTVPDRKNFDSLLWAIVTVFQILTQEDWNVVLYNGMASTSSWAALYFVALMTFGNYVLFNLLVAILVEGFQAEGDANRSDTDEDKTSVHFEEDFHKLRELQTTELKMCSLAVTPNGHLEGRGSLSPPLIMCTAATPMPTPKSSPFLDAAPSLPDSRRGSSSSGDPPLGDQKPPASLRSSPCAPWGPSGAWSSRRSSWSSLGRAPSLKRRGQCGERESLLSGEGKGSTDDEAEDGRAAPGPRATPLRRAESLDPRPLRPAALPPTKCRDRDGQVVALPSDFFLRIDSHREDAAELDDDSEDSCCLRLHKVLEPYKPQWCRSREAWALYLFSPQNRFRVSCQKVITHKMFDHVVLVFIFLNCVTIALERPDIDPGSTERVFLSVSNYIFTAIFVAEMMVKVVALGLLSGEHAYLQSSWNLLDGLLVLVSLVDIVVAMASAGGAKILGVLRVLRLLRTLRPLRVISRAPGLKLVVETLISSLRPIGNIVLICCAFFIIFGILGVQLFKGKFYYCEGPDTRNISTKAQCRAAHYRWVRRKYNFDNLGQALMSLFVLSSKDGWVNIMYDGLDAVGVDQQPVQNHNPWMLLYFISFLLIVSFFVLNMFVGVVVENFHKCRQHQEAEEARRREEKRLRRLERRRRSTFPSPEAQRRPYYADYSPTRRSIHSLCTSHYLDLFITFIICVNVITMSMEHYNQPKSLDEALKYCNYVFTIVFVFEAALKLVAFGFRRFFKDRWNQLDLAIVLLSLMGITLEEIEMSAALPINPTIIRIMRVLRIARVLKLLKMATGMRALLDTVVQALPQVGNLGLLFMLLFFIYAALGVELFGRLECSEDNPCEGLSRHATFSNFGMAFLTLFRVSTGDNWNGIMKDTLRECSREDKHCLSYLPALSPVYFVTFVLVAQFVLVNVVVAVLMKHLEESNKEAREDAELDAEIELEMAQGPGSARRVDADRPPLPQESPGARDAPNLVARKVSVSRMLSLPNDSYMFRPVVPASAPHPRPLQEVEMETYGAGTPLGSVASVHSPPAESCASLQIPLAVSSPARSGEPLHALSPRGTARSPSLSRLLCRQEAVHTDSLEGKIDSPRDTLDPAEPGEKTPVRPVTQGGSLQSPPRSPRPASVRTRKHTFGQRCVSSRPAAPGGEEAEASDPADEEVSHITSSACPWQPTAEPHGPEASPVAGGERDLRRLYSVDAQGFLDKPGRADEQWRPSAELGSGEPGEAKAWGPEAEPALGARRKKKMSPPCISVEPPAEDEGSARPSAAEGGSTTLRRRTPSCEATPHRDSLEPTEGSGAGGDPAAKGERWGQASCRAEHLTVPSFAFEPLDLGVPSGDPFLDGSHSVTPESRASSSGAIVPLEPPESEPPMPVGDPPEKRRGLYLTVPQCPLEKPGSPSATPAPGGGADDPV

[8] = system: HEK293; test: EBV LMP1 TES2 canonical NF-kB signalling blockers – cell-based, HEK293, luciferase, cherry-pick, dose response (AID 588343); type: functional; details: Homo sapiens
[9] = molecular target: T2, Calpain-2 catalytic subunit (Sus scrofa, UniProt P43367); test: m-calpain protease blockers, concentration series – biochemical, fluorogenic peptide substrate, dose response (AID 1420); type: functional
T2 sequence (P43367 whole entry): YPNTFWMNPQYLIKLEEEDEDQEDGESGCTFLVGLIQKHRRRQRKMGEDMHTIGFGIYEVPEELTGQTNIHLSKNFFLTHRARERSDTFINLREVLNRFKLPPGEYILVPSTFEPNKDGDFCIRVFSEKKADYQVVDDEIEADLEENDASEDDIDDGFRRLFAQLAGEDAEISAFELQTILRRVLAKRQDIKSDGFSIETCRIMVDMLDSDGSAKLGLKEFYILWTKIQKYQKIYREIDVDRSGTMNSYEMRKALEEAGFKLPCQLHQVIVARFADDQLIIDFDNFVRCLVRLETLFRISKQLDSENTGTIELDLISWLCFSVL

[10] = microbe, parasite or virus in culture; type: functional; details: Mycobacterium tuberculosis
[11] = molecular target: T3, Ubiquitin-conjugating enzyme E2 N (Homo sapiens, UniProt P61088); type: functional;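 also: Dose-response confirmation in a TR-FRET assay detecting UBC13-driven polyubiquitin chain formation, inhibition measured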
T3 sequence (P61088 whole entry): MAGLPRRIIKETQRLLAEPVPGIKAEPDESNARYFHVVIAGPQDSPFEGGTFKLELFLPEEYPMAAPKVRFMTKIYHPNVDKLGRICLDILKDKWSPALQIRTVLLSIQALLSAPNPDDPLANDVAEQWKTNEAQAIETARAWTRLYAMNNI

[12] = molecular target: T4, Carboxy-terminal domain RNA polymerase II polypeptide A small phosphatase 1 (Homo sapiens, UniProt Q9GZU7); test: CTDSP1 inhibitors, concentration-response, biochemical, absorbance readout, ultra-high-throughput screen actives (AID 540297); type: functional
T4 sequence (Q9GZU7 whole entry): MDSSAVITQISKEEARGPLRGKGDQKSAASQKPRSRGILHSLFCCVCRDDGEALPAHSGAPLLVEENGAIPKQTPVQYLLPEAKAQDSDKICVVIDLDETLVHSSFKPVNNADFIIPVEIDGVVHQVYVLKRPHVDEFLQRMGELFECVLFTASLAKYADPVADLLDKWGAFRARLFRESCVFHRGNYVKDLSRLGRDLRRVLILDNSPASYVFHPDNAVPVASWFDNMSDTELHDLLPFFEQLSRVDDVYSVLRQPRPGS

[13] = system: SN12K1; test: cells; type: functional; details: Homo sapiens
[14] = blockers of HIV-1 envelope-mediated cell-cell fusion – cherry-pick, dose response (AID 652057); type: functional, cell-based
[15] = blockers of HIV-1 ZM109 envelope-driven cell-cell fusion – HeLa effector, CEM target cells, luciferase, cherry-pick, dose response (AID 652058); type: functional, cell-based;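 also: luciferase signal from HIV-1 Env mediated cell-cell fusion of effector and target cells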

T1 sequence (Q9UBE0 whole entry): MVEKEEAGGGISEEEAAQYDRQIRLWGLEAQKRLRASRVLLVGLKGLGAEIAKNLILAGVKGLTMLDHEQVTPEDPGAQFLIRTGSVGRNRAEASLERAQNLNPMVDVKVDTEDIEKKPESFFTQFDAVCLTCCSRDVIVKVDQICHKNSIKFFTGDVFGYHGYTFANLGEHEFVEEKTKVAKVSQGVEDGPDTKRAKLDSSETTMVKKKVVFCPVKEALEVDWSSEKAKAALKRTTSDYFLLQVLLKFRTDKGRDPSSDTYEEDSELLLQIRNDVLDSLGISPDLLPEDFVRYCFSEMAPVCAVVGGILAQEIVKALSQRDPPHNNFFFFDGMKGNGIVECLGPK
T1 sequence (Q9UBT2 whole entry): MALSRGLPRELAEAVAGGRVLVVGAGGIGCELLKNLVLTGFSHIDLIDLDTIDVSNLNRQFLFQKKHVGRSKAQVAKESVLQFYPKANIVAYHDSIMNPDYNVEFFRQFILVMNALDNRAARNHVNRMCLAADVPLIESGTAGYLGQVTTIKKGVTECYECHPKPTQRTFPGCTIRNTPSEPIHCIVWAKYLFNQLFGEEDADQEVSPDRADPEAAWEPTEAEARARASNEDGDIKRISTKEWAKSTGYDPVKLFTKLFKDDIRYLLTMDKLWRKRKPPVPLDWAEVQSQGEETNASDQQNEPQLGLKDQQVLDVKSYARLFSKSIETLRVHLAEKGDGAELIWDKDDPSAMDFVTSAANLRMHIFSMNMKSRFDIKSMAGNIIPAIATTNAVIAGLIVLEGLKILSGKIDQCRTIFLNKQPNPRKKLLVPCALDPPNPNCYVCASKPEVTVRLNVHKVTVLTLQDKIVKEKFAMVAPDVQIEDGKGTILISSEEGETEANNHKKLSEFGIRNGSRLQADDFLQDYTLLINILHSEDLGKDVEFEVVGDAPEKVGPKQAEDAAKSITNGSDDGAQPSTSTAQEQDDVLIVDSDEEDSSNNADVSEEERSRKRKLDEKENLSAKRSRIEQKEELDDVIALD

In the case of O=C(N/N=C/c1ccc(Cl)cc1)c1nc(O)c2cc([N+](=O)[O-])ccc2n1, the IC50 [1] is reported as 21.5 µM (active) and the IC50 [2] is reported as 22 µM (active).
In the case of COc1ccccc1N1CCN(C(=O)CCC(=O)Nc2nnc(CC(C)C)s2)CC1, the EC50 [3] is reported as > 150 µM (not active), the EC50 [4] is reported as > 150 µM (inconclusive) and the EC50 [5] is reported as > 150 µM (not active). For the same molecule, the EC50 [6] was > 150 µM (not active).
With COc1cccc(-c2nnc(SCC(=O)NCc3ccc4c(c3)OCO4)n2Cc2ccco2)c1 the EC50 [7] was 8.92 µM (active).
In the case of CCOc1cc(/C=N/N=C(\N)c2nonc2N)cc(Br)c1OCc1cccc2ccccc12, the IC50 [1] is reported as 80 µM (active).
For O=Cc1ccc(-c2cccs2)s1, the AC50 [8] was 6.76 µM (active).
In the case of Cc1ccsc1S(=O)(=O)N1CCCC(CCC(=O)NCc2ccccc2F)C1 (configuration not stated), the IC50 [9] is reported as > 50 µM (not active).
With CC[C@@H](C)[C@H](CN[C@H](CNC)C(C)C)NC[C@@H](C)c1ccc(CC(C)C)cc1 the CC50 [10] was 10 µM (active) and the IC50 [11] was > 20 µM (inactive).
In the case of CN(C)c1cccc(/N=C2/C=C(N3CCOCC3)CC(C)(C)C2)c1, the IC50 [12] is reported as 5.65 µM (active).
With Cc1cccc(-c2nnc(S)n2/N=C/C=C/c2ccco2)c1 the IC50 [2] was > 100 µM (inactive).
In the case of C/C=C/C1=C(Cl)C(=O)[C@@H](Cl)[C@@]1(O)C(=O)OC [(+)-CRYPTOSPORIPSIN], the GI50 [13] is reported as 1.89 µM (inactive).
In the case of Cc1ccc(S(=O)(=O)N(C)C[C@H]2Oc3cc(-c4cccc(F)c4)ccc3S(=O)(=O)N([C@H](C)CO)C[C@H]2C)cc1, the AC50 [14] is reported as 1.47 µM (active) and the AC50 [15] is reported as < 0.26 µM (active).
